In experiment [1] the test system is IP3Rs (wild-type HEK cells). In words: Ca2+ release from permeabilized wild-type HEK cells. To be noted: 20 s after addition. It counts as cell-based, Homo sapiens. The procedure:
(§1) Incubation of cells with the acetoxymethylester (AM) of Mag-fluo 4 traps low-affinity forms of the indicator ( KdCa = 1.15 mM measured in situ) within the ER. Fluorescence, which is approximately linearly related to ER free [Ca^2+] (since [Ca^2+]ER < KdCa ), can then be used, without further calibration, to reliably report free [Ca^2+] within the ER lumen ([Rossi and Taylor, 2020]). The ER of DT40 or HEK293 cells was loaded with indicator by incubating cells with Mag-fluo 4 AM (20 μM, 60 min, 22°C) in HEPES-buffered saline (HBS: 135 mM NaCl, 5.9 mM KCl, 11.6 mM HEPES, 1.5 mM CaCl2, 11.5 mM glucose, 1.2 mM MgCl2, pH 7.3) as described ([Rossi et al., 2009]). After washing and permeabilization with saponin (10 μg/mL, 37°C, 2-3 min) in Ca^2+-free cytosol-like medium (Ca^2+-free CLM), cells were centrifuged (650 × g, 2 min) and resuspended in Mg^2+-free CLM supplemented with CaCl2 to give a final free [Ca^2+] of 220 nM after addition of 1.5 mM MgATP. Ca^2+-free CLM comprised: 20 mM NaCl, 140 mM KCl, 1 mM EGTA, 20 mM PIPES, 2 mM MgCl2, pH 7.0. Cells (4 × 10^5 cells/well) were attached to poly-L-lysine-coated 96-well black-walled plates (Greiner Bio-One, Stonehouse, UK), and fluorescence (excitation and emission at 485 nm and 520 nm, respectively) was recorded at intervals of 1.44 s using a FlexStation III plate-reader (Molecular Devices, Sunnyvale, CA, USA). MgATP (1.5 mM) was added to initiate Ca^2+ uptake, and when the ER had loaded to steady state with Ca^2+ (∼150 s), ligands were added. Responses to the ligands show ER Ca^2+ contents as either time courses or, in summary results, as the Ca^2+ content recorded 20 s after addition of the stimulus. The distribution of samples across 96-well plates was varied between experiments to avoid any systematic ‘position-related’ artifacts. HEK-G-CEPIA1er cells were permeabilized and assayed as described for Mag-fluo 4-loaded cells.
(§2) For equilibrium binding and concentration-effect relationships, results from each experiment were fitted to Hill equations (PRISM) from which pIC50 (-log of half-maximal inhibitory concentration) or pEC50 (-log of half-maximally effective concentration) values were determined. KDligand was calculated from: KDligand = […] . In functional assays, dose ratios (DR) were used to calculate antagonist affinities ([Arunlakshana and Schild, 1959]): KDantagonist = [antagonist]/(DR-1).

In experiment [2] the target is T1, NT (residues 1-604 of IP3R1) (Rattus norvegicus, UniProt P29994).
T1 construct: Residues 1-604 of rat IP3R1 (NT) in pTrcHisA plasmid; His6 (N, cleaved yes); made in house; host or cells: E. coli (bacterial lysate used in the assay)
T1 sequence (P29994 1-604): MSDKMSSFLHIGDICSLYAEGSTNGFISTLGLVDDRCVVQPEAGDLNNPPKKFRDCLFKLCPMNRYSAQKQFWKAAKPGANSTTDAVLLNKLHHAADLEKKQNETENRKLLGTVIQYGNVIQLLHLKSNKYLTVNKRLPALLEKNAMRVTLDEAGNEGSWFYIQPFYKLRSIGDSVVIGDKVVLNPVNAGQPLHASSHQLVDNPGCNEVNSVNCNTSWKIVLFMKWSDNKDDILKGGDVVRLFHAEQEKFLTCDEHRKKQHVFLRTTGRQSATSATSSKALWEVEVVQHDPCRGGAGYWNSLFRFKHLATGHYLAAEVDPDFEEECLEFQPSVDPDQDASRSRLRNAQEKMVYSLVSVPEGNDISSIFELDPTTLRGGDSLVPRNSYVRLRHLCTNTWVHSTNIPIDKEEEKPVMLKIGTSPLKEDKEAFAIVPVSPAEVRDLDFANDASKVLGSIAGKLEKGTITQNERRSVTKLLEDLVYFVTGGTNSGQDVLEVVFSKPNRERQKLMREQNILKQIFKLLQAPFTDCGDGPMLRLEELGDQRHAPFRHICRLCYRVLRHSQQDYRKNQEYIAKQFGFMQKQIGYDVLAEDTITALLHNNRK
In words: Equilibrium-competition [3H]IP3 binding to the NT fragment in TEM. The following applies: [3H]IP3 0.75 nM, read-out: NT, KD. The procedure:
(§3) IP3R1, which accounts for ∼99% of IP3Rs in cerebellum ([Wojcikiewicz, 1995]), was purified from cerebella of adult Wistar rats using heparin-affinity chromatography ([Rossi et al., 2009]). The purified protein (10 μg/mL) was stored at −80°C in 500 mM NaCl, 50 mM Tris, 10% glycerol, 1 mM 2-mercaptoethanol, 1 mM benzamidine, 1 mM EGTA, 50 mM Tris, 1% CHAPS, pH 8.0. N-terminal fragments of IP3R1 (IBC, residues 224-604; NT, residues 1-604) were expressed as N-terminally tagged His6-fusion proteins in E. coli and cleaved from the tag with thrombin ([Rossi et al., 2009]). […] Bound and free ligand were separated by centrifugation (4°C, 5 min, 14,000 × g).
as §2

In a further experiment the target is T2, IP3R1 (DT40-IP3R1 cells) (Rattus norvegicus, UniProt P29994).
T2 construct: expressed in transfected cells; host or cells: Gallus gallus DT40 cells without native IP3Rs, stably transfected
In words: Ca2+ release from permeabilized DT40-IP3R1 cells (Mag-fluo 4). It counts as cell-based. The procedure:
as §1, §2

Experiment [3] concerns the target T3, IBC (residues 224-604 of IP3R1) (Rattus norvegicus, UniProt P29994).
T3 construct: Residues 224-604 of rat IP3R1 (IBC) in pTrcHisA plasmid; His6 (N, cleaved yes); made in house; host or cells: E. coli (bacterial lysate used in the assay)
In words: Equilibrium-competition [3H]IP3 binding to the IBC fragment in TEM. To be noted: read-out: IBC, KD. The procedure:
as §3, §2

Experiment [4] addresses T4, IP3R1 (cerebellar membranes) (Rattus norvegicus, UniProt P29994).
T4 construct: membranes from cerebella of adult Wistar rats; from tissue; host or cells: cerebellar membranes of adult Wistar rats
Briefly: Equilibrium-competition [3H]IP3 binding to cerebellar membranes in CLM (conditions mimicking functional assays). On the procedure: Bound and free ligand were separated by centrifugation (22°C, 5 min, 14,000 × g).
as §2

In a further experiment the target is T5, IP3R1 (Rattus norvegicus, UniProt P29994).
T5 construct: expressed in transfected cells; host or cells: Gallus gallus DT40 cells without native IP3Rs, stably transfected
In words: Nuclear patch-clamp recording from excised nuclear patches of DT40-IP3R1 cells. It counts as biochemical, mammalian. The procedure: The methods used for patch-clamp recording from patches excised from the outer nuclear envelope of DT40-IP3R1 cells, with K^+ as charge-carrier and using QuB ([Qin, 2004]) for analysis of currents, were as described previously ([Taufiq-Ur-Rahman et al., 2009]; [Rossi et al., 2009]). It typically took 30-45 s to establish a recording, and Po was then stable throughout recordings that typically lasted up to 8-10 mins.
In general terms: The patch-clamp technique gives a direct electrical read-out from membranes.

A further experiment addresses T6, IP3R1 (HEK-IP3R1 cells) (Rattus norvegicus, UniProt P29994).
T6 construct: expressed in transfected cells
In words: Ca2+ release from permeabilized HEK-IP3R1 cells. In kind it is cell-based. To be noted: at the concentrations used (heparin 10 mg/mL, dequalinium 50 μM, 2-APB 125 μM), permeabilized HEK-IP3R1 cells. The procedure:
Fluorescence, which is approximately linearly related to ER free [Ca^2+] […] Ca^2+-free CLM comprised: 20 mM NaCl, 140 mM KCl, 1 mM EGTA, 20 mM PIPES, 2 mM MgCl2, pH 7.0. […] MgATP (1.5 mM) was added to initiate Ca^2+ uptake, and when the ER had loaded to steady state with Ca^2+ (∼150 s), ligands were added. Responses to the ligands show ER Ca^2+ contents as either time courses or, in summary results, as the Ca^2+ content recorded 20 s after addition of the stimulus. The distribution of samples across 96-well plates was varied between experiments to avoid any systematic ‘position-related’ artifacts. HEK-G-CEPIA1er cells were permeabilized and assayed as described for Mag-fluo 4-loaded cells.
For equilibrium binding and concentration-effect relationships, results from each experiment were fitted to Hill equations (PRISM) from which pIC50 (-log of half-maximal inhibitory concentration) or pEC50 (-log of half-maximally effective concentration) values were determined.

Several values for one entry are separate records, joined by “and”; a condition that tells them apart may be missing. Equal values may be shown once.

T4 sequence (P29994 whole entry): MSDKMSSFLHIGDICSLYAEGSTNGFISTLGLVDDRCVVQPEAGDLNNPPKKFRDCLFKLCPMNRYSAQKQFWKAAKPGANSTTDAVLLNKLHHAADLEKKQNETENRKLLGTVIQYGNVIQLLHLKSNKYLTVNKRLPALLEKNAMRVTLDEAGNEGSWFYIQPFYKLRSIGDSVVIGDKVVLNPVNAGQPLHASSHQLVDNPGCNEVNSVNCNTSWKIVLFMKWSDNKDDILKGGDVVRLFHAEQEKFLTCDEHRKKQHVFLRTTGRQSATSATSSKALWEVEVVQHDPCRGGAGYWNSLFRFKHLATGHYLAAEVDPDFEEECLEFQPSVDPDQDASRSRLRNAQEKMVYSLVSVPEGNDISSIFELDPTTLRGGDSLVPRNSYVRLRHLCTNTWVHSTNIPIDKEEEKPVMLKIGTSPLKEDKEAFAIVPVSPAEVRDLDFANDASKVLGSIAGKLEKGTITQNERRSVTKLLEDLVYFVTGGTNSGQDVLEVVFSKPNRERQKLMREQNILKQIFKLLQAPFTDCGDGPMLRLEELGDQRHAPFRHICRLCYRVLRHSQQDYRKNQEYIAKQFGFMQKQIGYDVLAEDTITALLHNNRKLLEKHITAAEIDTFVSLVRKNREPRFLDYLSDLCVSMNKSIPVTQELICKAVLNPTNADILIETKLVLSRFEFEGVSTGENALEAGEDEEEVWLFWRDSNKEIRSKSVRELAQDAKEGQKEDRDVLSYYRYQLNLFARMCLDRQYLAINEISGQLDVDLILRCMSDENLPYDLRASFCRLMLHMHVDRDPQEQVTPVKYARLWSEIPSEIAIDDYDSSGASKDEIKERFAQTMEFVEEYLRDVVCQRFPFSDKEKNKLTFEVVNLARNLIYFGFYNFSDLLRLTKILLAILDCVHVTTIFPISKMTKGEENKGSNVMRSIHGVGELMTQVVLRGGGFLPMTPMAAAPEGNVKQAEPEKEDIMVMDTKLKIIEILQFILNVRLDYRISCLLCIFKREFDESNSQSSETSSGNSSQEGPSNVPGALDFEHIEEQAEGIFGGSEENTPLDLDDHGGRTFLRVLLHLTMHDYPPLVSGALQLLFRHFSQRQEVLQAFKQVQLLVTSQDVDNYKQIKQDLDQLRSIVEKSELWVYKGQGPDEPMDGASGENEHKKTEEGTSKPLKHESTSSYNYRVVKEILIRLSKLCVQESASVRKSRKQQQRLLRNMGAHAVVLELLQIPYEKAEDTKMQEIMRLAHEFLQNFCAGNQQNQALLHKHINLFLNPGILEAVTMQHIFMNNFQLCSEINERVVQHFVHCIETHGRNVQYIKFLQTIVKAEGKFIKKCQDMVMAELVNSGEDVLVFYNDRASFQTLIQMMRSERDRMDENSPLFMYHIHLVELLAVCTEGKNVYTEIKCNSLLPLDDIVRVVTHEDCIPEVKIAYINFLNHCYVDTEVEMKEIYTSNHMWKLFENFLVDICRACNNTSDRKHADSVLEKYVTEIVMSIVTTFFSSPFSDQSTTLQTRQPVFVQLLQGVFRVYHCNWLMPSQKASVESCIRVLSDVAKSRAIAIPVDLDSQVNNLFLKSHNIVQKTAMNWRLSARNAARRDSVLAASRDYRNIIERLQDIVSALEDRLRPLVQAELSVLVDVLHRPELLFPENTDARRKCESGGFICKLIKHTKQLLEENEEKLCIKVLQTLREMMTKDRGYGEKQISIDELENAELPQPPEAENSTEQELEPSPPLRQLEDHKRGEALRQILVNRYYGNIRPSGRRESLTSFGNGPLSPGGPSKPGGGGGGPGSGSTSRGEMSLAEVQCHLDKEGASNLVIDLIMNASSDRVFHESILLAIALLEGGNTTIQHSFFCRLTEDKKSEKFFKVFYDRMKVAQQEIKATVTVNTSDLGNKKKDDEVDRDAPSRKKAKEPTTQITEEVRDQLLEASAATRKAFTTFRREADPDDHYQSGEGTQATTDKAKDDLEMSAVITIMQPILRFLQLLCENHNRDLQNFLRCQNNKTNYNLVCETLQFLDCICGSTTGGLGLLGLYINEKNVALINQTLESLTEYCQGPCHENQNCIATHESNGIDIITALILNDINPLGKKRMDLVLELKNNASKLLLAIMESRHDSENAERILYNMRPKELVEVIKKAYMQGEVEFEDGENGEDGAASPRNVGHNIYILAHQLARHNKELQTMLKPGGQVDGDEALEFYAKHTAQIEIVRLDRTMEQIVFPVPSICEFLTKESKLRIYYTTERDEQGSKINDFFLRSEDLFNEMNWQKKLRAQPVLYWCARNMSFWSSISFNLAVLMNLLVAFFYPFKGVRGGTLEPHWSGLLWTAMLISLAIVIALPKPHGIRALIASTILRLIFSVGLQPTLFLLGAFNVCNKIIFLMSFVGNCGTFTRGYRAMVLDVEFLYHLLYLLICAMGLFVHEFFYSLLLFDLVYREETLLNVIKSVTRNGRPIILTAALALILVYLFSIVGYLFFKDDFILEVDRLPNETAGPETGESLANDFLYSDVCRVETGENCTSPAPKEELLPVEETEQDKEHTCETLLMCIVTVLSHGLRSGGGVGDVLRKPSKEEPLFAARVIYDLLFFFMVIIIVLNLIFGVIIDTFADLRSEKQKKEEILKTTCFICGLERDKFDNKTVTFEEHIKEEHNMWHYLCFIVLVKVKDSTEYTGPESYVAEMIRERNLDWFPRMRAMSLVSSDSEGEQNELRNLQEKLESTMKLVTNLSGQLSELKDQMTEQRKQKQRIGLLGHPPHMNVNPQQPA
T3 sequence (P29994 224-604): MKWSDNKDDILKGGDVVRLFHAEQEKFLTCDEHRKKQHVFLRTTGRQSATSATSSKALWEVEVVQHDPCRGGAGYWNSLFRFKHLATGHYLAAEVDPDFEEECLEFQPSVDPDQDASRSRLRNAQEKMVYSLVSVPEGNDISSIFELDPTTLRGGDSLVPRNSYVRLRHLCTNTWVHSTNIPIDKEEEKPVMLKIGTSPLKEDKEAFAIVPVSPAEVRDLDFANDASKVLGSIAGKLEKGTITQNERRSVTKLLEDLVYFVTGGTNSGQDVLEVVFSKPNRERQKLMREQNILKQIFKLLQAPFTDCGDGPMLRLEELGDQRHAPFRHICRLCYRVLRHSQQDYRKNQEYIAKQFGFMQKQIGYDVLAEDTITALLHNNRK

Consider `O=C(NCCCN(CCCCN(CCCNC(=O)OCc1ccccc1)C(=O)OCc1ccccc1)C(=O)OCc1ccccc1)NCCO[C@@H]1[C@H](O)[C@@H](OP(=O)(O)O)[C@H](OP(=O)(O)O)[C@@H](O)[C@@H]1OP(=O)(O)O` [Compound 2, 2-O-(1,5,10-tris(benzyloxycarbonyl)-15-oxo-1,5,10,14,16-pentaazaoctadecan-18-yl)-1D-myo-inositol 1,4,5-trisphosphate], for which, in experiment [1] (maximal), the “Ca2+ release (%)” value is given as 51 ± 7%. The pEC50 (as a rule, the negative decadic logarithm of the EC50, by convention in mol/L) in experiment [1] (mean ± SEM) stood at 6.09 ± 0.22. The Kd (usually the equilibrium constant for the complex coming apart) in experiment [2] was 2.32 nM; on IP3R1 (DT40-IP3R1 cells) (DT40-IP3R1 cells, read-out: KD derived from functional assays) it was ~450 nM; in experiment [3], 0.44 nM; in experiment [4] (cerebellar membranes, CLM, conditions that mimic functional assays), 549 nM. Also, on IP3R1 (DT40-IP3R1 cells), the “ECI50/KD ratio relative to IP3 (fold greater)” value was 41 fold. Further, the “Ca2+ release evoked by 2 (%)” value on IP3R1 (DT40-IP3R1 cells) (2 at 1 µM, 30 s, permeabilized DT40-IP3R1 cells) was 31% ± 7% and 31 ± 7%. In addition, the “Ca2+ stores released by a maximal concentration” value on IP3R1 (DT40-IP3R1 cells) (2 at 30 μM, determined at 150 s, permeabilized DT40-IP3R1 cells) was 52% ± 3%. Besides, the pKD-pECI50 at IP3R1 (DT40-IP3R1 cells) (KD for IP3R1 in TEM, ECI50 in DT40-IP3R1 cells, mean ± SEM) came to 2.15 ± 0.15. Moreover, the Kb on IP3R1 (DT40-IP3R1 cells) (functional analysis, IP3-evoked Ca2+ release ± 2 (1 µM), DT40-IP3R1 cells, read-out: KD determined from dose-ratio analysis, KD = [2]/(DR-1)) was determined as 426 nM. In addition, the “Ca2+ release, Release (maximal)” value on IP3R1 (DT40-IP3R1 cells) (permeabilized DT40-IP3R1 cells, determined after 20 s, mean ± SEM) is 51.9 ± 0.7%. Moreover, the EC50 (as a rule, the concentration at which the effect is half-maximal) at IP3R1 (DT40-IP3R1 cells) (permeabilized DT40-IP3R1 cells, determined after 20 s, read-out: Ca2+ release, EC50) turned out to be 479 nM. Also, the “Hill coefficient (h) of binding” value in experiment [4] (cerebellar membranes, CLM at 20°C) is given as 2.0 ± 0.7. Further, the “KD relative to KD for IP3 (fold lower)” value in experiment [4] (conditions that mimic functional assays) is reported as 1.5 fold. Further, at IP3R1, the “decrease in τo relative to IP3 (fold)” value is given as ~2 fold. The “maximal NPo relative to IP3 (fold less)” value on IP3R1 turned out to be 40 fold. Moreover, the “τo, mean channel open time” value at IP3R1 (10 µM ligand) amounted to 4.4 ± 0.20 ms. For the same compound, the “NPo (channel activity)” value on IP3R1 (10 µM ligand in pipette, +40 mV, K+ charge carrier, mean ± SEM) stood at 0.012 ± 0.003. Further, the “γK, single-channel K+ conductance” value on IP3R1 (10 µM ligand, from current-voltage relationships) amounted to 217 ± 4 pS.

Regarding `Cc1cc(N)c2ccccc2[n+]1CCCCCCCCCC[n+]1c(C)cc(N)c2ccccc21` [dequalinium, Dequalinium chloride hydrate], the “block of IP3-evoked Ca2+ release” value at IP3R1 (HEK-IP3R1 cells) is given as “completely”. Besides, the “effect on specific [3H]IP3 binding” value in experiment [4] (dequalinium 50 μM, [3H]IP3 7.5 nM, cerebellar membranes in CLM at 20°C) is reported as “No significant difference”.

Turning to `NCCOB(c1ccccc1)c1ccccc1` [Compound 2-APB, 2-aminoethoxydiphenyl borate], the “block of IP3-evoked Ca2+ release” value at IP3R1 (HEK-IP3R1 cells) is “partially”.

Values taken from PMC8578705 (Cell Reports, 2021).
